# Measurements from ChEMBL document CHEMBL3885861, “Open TG-GATES”.
# Organism: Rattus norvegicus
# Test: Open TG-GATES - Regimen: Daily Repeat
# Assay type: toxicity, organism-based, Sprague-Dawley
# Design: regimen Daily Repeat, gender Male, age 6 weeks
# Conditions: in vivo, po, route gavage; for APTT / Bas / Eos / Fbg / Hb / Ht / Lym / MCH / MCHC / MCV / Mono / Neu / PT / Plat / RBC / Ret / WBC: tissue Blood; for A/G / ALP / ALT / AST / BUN / CRE / Ca / Cl / DBIL / GLC / IP / K / LDH / Na / PL / RALB / TBIL / TC / TG / TP / gamma-GTP: tissue Plasma
# [1] = 30 mg/kg, 72 h, dose level Middle, time 3 day
# [2] = 30 mg/kg, […], dose level Middle, time 7 day
# [3] = 30 mg/kg, […], dose level Middle, time 14 day
# [4] = 30 mg/kg, […], dose level Middle, time 28 day
# [5] = 100 mg/kg, 72 h, dose level High, time 3 day
# [6] = 100 mg/kg, […], dose level High, time 7 day
# [7] = 100 mg/kg, […], dose level High, time 14 day
# [8] = 100 mg/kg, […], dose level High, time 28 day
structure (smiles),measurement,setting,value
Cn1cc[nH]c1=S [METHIMAZOLE],TERMINAL_BW,[1],217 g
same,APTT,[1],20.8 s
same,Bas,[1],0%
same,Eos,[1],1%
same,Fbg,[1],340.6 mg/dL
same,Hb,[1],14 g/dL
same,Ht,[1],39.7%
same,Lym,[1],84%
same,MCH,[1],21.6 pg
same,MCHC,[1],35.2%
same,MCV,[1],61.2 fL
same,Mono,[1],2%
same,Neu,[1],12.8%
same,PT,[1],16.5 s
same,Plat,[1],131.6 x10_4/uL
same,RBC,[1],648.8 x10_4/ul
same,Ret,[1],5.4%
same,WBC,[1],83.8 x10_2/uL
same,A/G,[1],1.2
same,ALP,[1],1643.6 IU/L
same,ALT,[1],41.2 IU/L
same,AST,[1],61 IU/L
same,BUN,[1],14.6 mg/dL
same,CRE,[1],0.1 mg/dL
same,Ca,[1],11 mg/dL
same,Cl,[1],107 meq/L
same,DBIL,[1],0.002 mg/dL
same,GLC,[1],178.4 mg/dL
same,IP,[1],6.6 mg/dL
same,K,[1],4.4 meq/L
same,LDH,[1],260.2 IU/L
same,Na,[1],142.4 meq/L
same,PL,[1],173 mg/dL
same,RALB,[1],3.3 g/dL
same,TBIL,[1],0.012 mg/dL
same,TC,[1],94 mg/dL
same,TG,[1],132.8 mg/dL
same,TP,[1],5.9 g/dL
same,gamma-GTP,[1],1.2 IU/L
same,TERMINAL_BW,[2],231.6 g
same,TERMINAL_BW,[3],256 g
same,TERMINAL_BW,[4],282.7 g
same,APTT,[2],20.9 s
same,Bas,[2],0%
same,Eos,[2],1%
same,Fbg,[2],335.6 mg/dL
same,Hb,[2],15.1 g/dL
same,Ht,[2],41.3%
same,Lym,[2],83.6%
same,MCH,[2],22.3 pg
same,MCHC,[2],36.7%
same,MCV,[2],60.7 fL
same,Mono,[2],2%
same,Neu,[2],12.8%
same,PT,[2],16.9 s
same,Plat,[2],122.3 x10_4/uL
same,RBC,[2],680 x10_4/ul
same,Ret,[2],3.7%
same,WBC,[2],90.9 x10_2/uL
same,APTT,[3],21.6 s
same,Bas,[3],0%
same,Eos,[3],0.2%
same,Fbg,[3],295 mg/dL
same,Hb,[3],14.6 g/dL
same,Ht,[3],41.6%
same,Lym,[3],89%
same,MCH,[3],20.2 pg
same,MCHC,[3],35%
same,MCV,[3],57.6 fL
same,Mono,[3],1%
same,Neu,[3],8.4%
same,PT,[3],17.5 s
same,Plat,[3],109.2 x10_4/uL
same,RBC,[3],721.2 x10_4/ul
same,Ret,[3],1.6%
same,WBC,[3],89.2 x10_2/uL
same,APTT,[4],21.4 s
same,Bas,[4],0%
same,Eos,[4],0.8%
same,Fbg,[4],290.6 mg/dL
same,Hb,[4],15.4 g/dL
same,Ht,[4],42.4%
same,Lym,[4],84.4%
same,MCH,[4],19.3 pg
same,MCHC,[4],36.2%
same,MCV,[4],53.3 fL
same,Mono,[4],2%
same,Neu,[4],12.2%
same,PT,[4],17.4 s
same,Plat,[4],90.1 x10_4/uL
same,RBC,[4],796 x10_4/ul
same,Ret,[4],1%
same,WBC,[4],91.7 x10_2/uL
same,A/G,[2],1.1
same,ALP,[2],1563.2 IU/L
same,ALT,[2],34.4 IU/L
same,AST,[2],57 IU/L
same,BUN,[2],17.2 mg/dL
same,CRE,[2],0.2 mg/dL
same,Ca,[2],10.7 mg/dL
same,Cl,[2],108 meq/L
same,DBIL,[2],0.002 mg/dL
same,GLC,[2],166.8 mg/dL
same,IP,[2],6.7 mg/dL
same,K,[2],4.2 meq/L
same,LDH,[2],248.8 IU/L
same,Na,[2],141.8 meq/L
same,PL,[2],169.4 mg/dL
same,RALB,[2],3.2 g/dL
same,TBIL,[2],0.002 mg/dL
same,TC,[2],97 mg/dL
same,TG,[2],105 mg/dL
same,TP,[2],6.3 g/dL
same,gamma-GTP,[2],1 IU/L
same,A/G,[3],1.1
same,ALP,[3],1519.4 IU/L
same,ALT,[3],31.2 IU/L
same,AST,[3],48 IU/L
same,BUN,[3],22.2 mg/dL
same,CRE,[3],0.2 mg/dL
same,Ca,[3],10.8 mg/dL
same,Cl,[3],106.4 meq/L
same,DBIL,[3],0.002 mg/dL
same,GLC,[3],175.6 mg/dL
same,IP,[3],6.2 mg/dL
same,K,[3],3.8 meq/L
same,LDH,[3],190.4 IU/L
same,Na,[3],142.6 meq/L
same,PL,[3],169 mg/dL
same,RALB,[3],3.4 g/dL
same,TBIL,[3],0.018 mg/dL
same,TC,[3],105 mg/dL
same,TG,[3],79.6 mg/dL
same,TP,[3],6.7 g/dL
same,gamma-GTP,[3],1 IU/L
same,A/G,[4],1
same,ALP,[4],839.6 IU/L
same,ALT,[4],34 IU/L
same,AST,[4],44 IU/L
same,BUN,[4],21.2 mg/dL
same,CRE,[4],0.3 mg/dL
same,Ca,[4],10.4 mg/dL
same,Cl,[4],106.2 meq/L
same,DBIL,[4],0.006 mg/dL
same,GLC,[4],169.8 mg/dL
same,IP,[4],5.3 mg/dL
same,K,[4],3.9 meq/L
same,LDH,[4],154.8 IU/L
same,Na,[4],142.2 meq/L
same,PL,[4],159.6 mg/dL
same,RALB,[4],3.5 g/dL
same,TBIL,[4],0.014 mg/dL
same,TC,[4],103.2 mg/dL
same,TG,[4],53.8 mg/dL
same,TP,[4],6.9 g/dL
same,gamma-GTP,[4],2 IU/L
same,TERMINAL_BW,[5],196.1 g
same,APTT,[5],20.2 s
same,Bas,[5],0%
same,Eos,[5],1%
same,Fbg,[5],316.5 mg/dL
same,Hb,[5],14.8 g/dL
same,Ht,[5],41.3%
same,Lym,[5],81.4%
same,MCH,[5],21.8 pg
same,MCHC,[5],35.9%
same,MCV,[5],60.6 fL
same,Mono,[5],2.2%
same,Neu,[5],14.6%
same,PT,[5],15.9 s
same,Plat,[5],118.8 x10_4/uL
same,RBC,[5],682.8 x10_4/ul
same,Ret,[5],3.7%
same,WBC,[5],59.4 x10_2/uL
same,A/G,[5],1.2
same,ALP,[5],1390.6 IU/L
same,ALT,[5],34.8 IU/L
same,AST,[5],42.2 IU/L
same,BUN,[5],16.6 mg/dL
same,CRE,[5],0.1 mg/dL
same,Ca,[5],10.8 mg/dL
same,Cl,[5],108.2 meq/L
same,DBIL,[5],0.004 mg/dL
same,GLC,[5],162 mg/dL
same,IP,[5],7.1 mg/dL
same,K,[5],3.9 meq/L
same,LDH,[5],258.6 IU/L
same,Na,[5],141.8 meq/L
same,PL,[5],180.8 mg/dL
same,RALB,[5],3.2 g/dL
same,TBIL,[5],0.028 mg/dL
same,TC,[5],103 mg/dL
same,TG,[5],62.2 mg/dL
same,TP,[5],5.9 g/dL
same,gamma-GTP,[5],1 IU/L
same,TERMINAL_BW,[6],231.6 g
same,TERMINAL_BW,[7],234.9 g
same,TERMINAL_BW,[8],244.7 g
same,APTT,[6],20.6 s
same,Bas,[6],0%
same,Eos,[6],1%
same,Fbg,[6],347.6 mg/dL
same,Hb,[6],14.7 g/dL
same,Ht,[6],40.3%
same,Lym,[6],86.8%
same,MCH,[6],21.7 pg
same,MCHC,[6],36.4%
same,MCV,[6],59.6 fL
same,Mono,[6],2.2%
same,Neu,[6],8.4%
same,PT,[6],17.9 s
same,Plat,[6],132.4 x10_4/uL
same,RBC,[6],677 x10_4/ul
same,Ret,[6],2.3%
same,WBC,[6],73.6 x10_2/uL
same,APTT,[7],20.8 s
same,Bas,[7],0%
same,Eos,[7],0.4%
same,Fbg,[7],430.8 mg/dL
same,Hb,[7],14.5 g/dL
same,Ht,[7],40.9%
same,Lym,[7],80.4%
same,MCH,[7],20.4 pg
same,MCHC,[7],35.4%
same,MCV,[7],57.7 fL
same,Mono,[7],2.6%
same,Neu,[7],15%
same,PT,[7],18.1 s
same,Plat,[7],100.4 x10_4/uL
same,RBC,[7],708.8 x10_4/ul
same,Ret,[7],1.4%
same,WBC,[7],65 x10_2/uL
same,APTT,[8],19.9 s
same,Bas,[8],0%
same,Eos,[8],0.2%
same,Fbg,[8],298.4 mg/dL
same,Hb,[8],14.9 g/dL
same,Ht,[8],40.7%
same,Lym,[8],87.4%
same,MCH,[8],19.6 pg
same,MCHC,[8],36.7%
same,MCV,[8],53.4 fL
same,Mono,[8],1.8%
same,Neu,[8],9.4%
same,PT,[8],18.1 s
same,Plat,[8],77.6 x10_4/uL
same,RBC,[8],761.4 x10_4/ul
same,Ret,[8],0.7%
same,WBC,[8],79.7 x10_2/uL
same,A/G,[6],1.1
same,ALP,[6],1556.6 IU/L
same,ALT,[6],30.2 IU/L
same,AST,[6],32.4 IU/L
same,BUN,[6],18 mg/dL
same,CRE,[6],0.2 mg/dL
same,Ca,[6],11.1 mg/dL
same,Cl,[6],107.2 meq/L
same,DBIL,[6],0.004 mg/dL
same,GLC,[6],161.4 mg/dL
same,IP,[6],7 mg/dL
same,K,[6],4.1 meq/L
same,LDH,[6],221.8 IU/L
same,Na,[6],141.4 meq/L
same,PL,[6],203.2 mg/dL
same,RALB,[6],3.5 g/dL
same,TBIL,[6],0.01 mg/dL
same,TC,[6],120 mg/dL
same,TG,[6],89.4 mg/dL
same,TP,[6],6.7 g/dL
same,gamma-GTP,[6],1.8 IU/L
same,A/G,[7],1
same,ALP,[7],984.4 IU/L
same,ALT,[7],30.8 IU/L
same,AST,[7],26.6 IU/L
same,BUN,[7],21.6 mg/dL
same,CRE,[7],0.3 mg/dL
same,Ca,[7],11.1 mg/dL
same,Cl,[7],106.4 meq/L
same,DBIL,[7],0.006 mg/dL
same,GLC,[7],164.8 mg/dL
same,IP,[7],6.3 mg/dL
same,K,[7],4 meq/L
same,LDH,[7],182.6 IU/L
same,Na,[7],142.6 meq/L
same,PL,[7],201.4 mg/dL
same,RALB,[7],3.6 g/dL
same,TBIL,[7],0.034 mg/dL
same,TC,[7],140.2 mg/dL
same,TG,[7],44.4 mg/dL
same,TP,[7],7.2 g/dL
same,gamma-GTP,[7],2 IU/L
same,A/G,[8],1.1
same,ALP,[8],910 IU/L
same,ALT,[8],33.4 IU/L
same,AST,[8],25.8 IU/L
same,BUN,[8],24.8 mg/dL
same,CRE,[8],0.3 mg/dL
same,Ca,[8],10.8 mg/dL
same,Cl,[8],105.6 meq/L
same,DBIL,[8],0.028 mg/dL
same,GLC,[8],166.6 mg/dL
same,IP,[8],5.6 mg/dL
same,K,[8],3.5 meq/L
same,LDH,[8],151.2 IU/L
same,Na,[8],143.8 meq/L
same,PL,[8],167.6 mg/dL
same,RALB,[8],3.7 g/dL
same,TBIL,[8],0.048 mg/dL
same,TC,[8],110 mg/dL
same,TG,[8],42 mg/dL
same,TP,[8],7.2 g/dL
same,gamma-GTP,[8],2.6 IU/L
